Assay results reported in patent US11969402B2, “Compositions and methods for skin rejuvenation” (THE JOHNS HOPKINS UNIVERSITY, priority 2019, dated 2024).

Experiments:
[1] = tested on: human scalp keratinocytes; assay: Western blot / immunostaining of ALDH1A3, KRT15, KRT19 in human keratinocytes; assay type: cell-based; settings: for ALDH1A3 protein: human keratinocytes, western blot
Procedure: BMS493 treatment. BMS493 pan-RARs antagonist (1 μM) was pre-treated into keratinocytes for an hour and cells were incubated with RA (0.1 μM and 0.5 μM for human and mouse keratinocytes, respectively) or Poly (I:C) (0.1 μg per ml for both human and mouse keratinocytes) for 48 hrs. At the end of the experiment, cells were harvested for RNA and protein extraction to do further analysis including qRT-PCR and western blot.
Western blot analysis. Human and mouse keratinocytes were disrupted in M-PER lysis buffer (Thermo Fisher Scientific, #78501) containing protease inhibitors (Thermo Fisher Scientific, #87786) using ultrasonic homogenizer (20% power with 5 times every 2 seconds) to extract proteins. Then, protein concentrations were determined by BCA method (Thermo Fisher Scientific, #23225). Western blot procedures were followed by the protocol of NuPAGE system (Thermo Fisher Scientific). Briefly, 20 μg of protein samples were loaded for electrophoresis and transferred to polyvinylidene di-fluoride (PVDF) membrane (Bio-Rad, Hercules, CA). After blocking for at least an hour in 5% non-fat dry milk, the membrane was incubated with primary antibodies with appropriate dilutions (Table 2) at 4° C. overnight and followed by incubation with secondary antibodies for 1 hour at room temperature. Protein amounts were normalized to rabbit polyclonal anti-human β-actin antibody (1:1,000 dilution) (Cell Signaling Technology). Finally, proteins were visualized using SuperSignal West Pico PLUS chemiluminescent substrate kit (Thermo Fisher Scientific, #34577) and saved as image files using ChemiDoc XRS^+ (Bio-Rad). The signal intensity of protein was quantified using Image Lab software (Bio-Rad). Original images of representative blots were provided in the Source data file.
Immunofluorescence. For tissues, frozen-sections of mouse skin samples were stained with primary antibodies with appropriate dilution at 4° C. overnight, followed by incubation with goat anti-rabbit IgG labeled with Alexa Flour® 488 (Life Technologies) and 594 (Life Technologies) for 1 hour at room temperature. For cells, keratinocytes (3×10^5 cells) plated on cover-slip were fixed with 4% Paraformaldehyde (PFA) for 10 min, permeabilized in PBS including 0.5% Triton X-100 for 15 min at room temperature. After washing with PBS 3 times, cells were stained with primary antibodies overnight at 4° C., followed by incubation with goat anti-rabbit or mouse IgG labeled with Alexa Flour® 488 for 1 hour at room temperature. Cell nuclei were visualized by mounting medium including DAPI (Vector Laboratories, Burlingame, CA, H-1200). Fluorescence images were observed by fluorescence microscopy (Leica microsystems), taken pictures with ×100 (low magnification) and ×200 (high magnification), and saved as image files.

[2] = tested on: Wound Induced Hair Neogenesis (WIHN); assay: Wound Induced Hair Neogenesis (WIHN), regenerated hair follicles counted by CSLM; assay type: in vivo, mouse
Procedure: Wound Induced Hair Neogenesis (WIHN). All experiments were followed with the present inventors' WIHN protocol^1,9. Briefly, hair was shaved and a 1.2 cm^2 full-thickness skin on the backs of 21-day old (telogen) male and female mice was removed by sterile scissors. A single treatment of RA (30 μl) (0.1 μg per mouse) (Millipore Sigma, R2625) and BMS493 (30 μl) (0.1 μg per mouse) (Cayman Chemical, #17418) was applied topically onto open wound on WD1 of Tlr3^−/− and WT mice, respectively. Poly (I:C) (50 μl) (5 μg per mouse) (Invivogen, tlrl-pic) was injected under the healed scab on WD3 of WT mice as described before^9,34. On WD20-24, numbers of regenerated hair follicles were visualized and quantified in the re-epithelialized skin by non-invasive confocal scanning laser microscopy (CSLM) (Caliber I.D., VIVASCOPE 1500) as published^1,9. As a vehicle (Control), ethanol (EtOH), dimethylsulfoxide (DMSO), or PBS was treated for RA, BMS493, and Poly (I:C), respectively.

Compound	ALDH1A3, KRT15 and KRT19 protein expression ([1]; human keratinocytes following Poly (I:C) stimulation)	ALDH1A3 protein [1]	hair follicle regeneration (WIHN) ([2]; MDA5−/− mice, similar to WT)	new hair follicle formation (WIHN) ([2]; WT mice, single injection 5 μg per mouse on WD3)	hair follicle regeneration (WIHN) ([2]; Tlr3−/− mice, topical 0.1 μg per mouse on WD1)	WIHN ([2]; WT mice, supraphysiologic doses of RA)
Polyinosinic-polycytidylic acid [Poly (I:C)]	upregulated	robustly increased	induces hair follicle regeneration	stimulates new hair follicle formation		
CC1=C(/C=C/C(C)=C/C=C/C(C)=C/C(=O)O)C(C)(C)CCC1 [RA, all-trans-retinoic acid]		robustly increased			modestly increased	do not modify
